Results: US20020022718A1, “Genes identified as required for proliferation of E. coli” (priority 1999, published 2002)
Values after ≈ are worked out from the molar mass of the structure shown. Like-named read-outs stand apart in the source and are kept apart here. Bridge positions count the residues as written; N and C are the ends. Square brackets hold non-standard residues; d marks the D form. Peptide text beside a SMILES is read from it. * marks the point of attachment. Ileψ(thiazoline)Cys = CC[C@H](C)[C@H](N)C1=N[C@H](C(=O)*)CS1; dOrn = NCCC[C@@H](N)C(=O)O

Experiments:
[1] = system: Bacterial cells expressing antisense nucleic acid complementary to rplL and rplJ (50S ribosomal subunit proteins); test: microbe, parasite or virus in culture; format: cell-based, E. coli; conditions: for IC50: Escherichia coli; for Fold Increase in Sensitivity: IC50 −IPTG versus +IPTG (400 μM); for Sensitivity Increased?: significant decrease in IC50 in the presence of inducer IPTG
Method: Two-fold dilution series of antibiotics with a known mechanism of action are generated in the culture media selected for further assay development that has been supplemented with the antibiotic used to maintain the construct. A panel of test antibiotics known to act on different pathways is tested side by side with three to four wells being used to evaluate the effect of a test antibiotic on cell growth at each concentration. Equal volumes of test antibiotic and cells are added to the wells of a 384 well microtiter plate and mixed. Cells are prepared as described above using the media selected for assay development supplemented with the antibiotic required to maintain the antisense construct and are diluted 1:100 in identical media immediately prior to addition to the microtiter plate wells. For a control, cells are also added to several wells that contain the solvent used to dissolve the antibiotics but no antibiotic. Cell growth is monitored continuously by incubation at 37° C. in a microtiter plate reader monitoring the OD600 of the wells over an 18-hour period. […] A plot of percent inhibition against log[antibiotic concentration] allows extrapolation of an IC50 value for each antibiotic.
The culture media selected for use in the assay is supplemented with inducer at concentrations shown to inhibit cell growth by 50% and 80% as described above and the antibiotic used to maintain the construct. Two fold dilution series of the panel of test antibiotics used above are generated in each of these media. Several antibiotics are tested side by side with three to four wells being used to evaluate the effects of an antibiotic on cell growth at each concentration, in each media. Equal volumes of test antibiotic and cells are added to the wells of a 384 well microtiter plate and mixed. Cells are prepared as described above using the media selected for use in the assay supplemented with the antibiotic required to maintain the antisense construct. […] Immediately prior to addition to the microtiter plate wells, the cultures are adjusted to an appropriate OD600 (typically 0.002) by dilution into warm (37° C.) sterile media supplemented with identical concentrations of the inducer and antibiotic used to maintain the antisense construct. For a control, cells are also added to several wells that contain solvent used to dissolve test antibiotics but which contain no antibiotic. Cell growth is monitored continuously by incubation at 37° C. in a microtiter plate reader monitoring the OD600 of the wells over an 18-hour period. […] A plot of percent inhibition against log[antibiotic concentration] allows extrapolation of an IC50 value for each antibiotic.
Antibiotics of various chemical classes and modes of action were purchased from Sigma Chemicals (St. Louis, Mo.). Stock solutions were prepared by dissolving each antibiotic in an appropriate aqueous solution based on information provided by the manufacturer. The final working solution of each antibiotic contained no more than 0.2% (w/v) of any organic solvent. To determine their potency against a bacterial strain engineered for expression of an antisense complementary to a proliferation-required gene encoding 50S ribosomal protein, each antibiotic was serially diluted two or three fold in growth medium supplemented with the appropriate antibiotic for maintenance of the anti-sense construct. At least ten dilutions were prepared for each antibiotic. 25 μL aliquots of each dilution were transferred to discrete wells of a 384-well microplate (the assay plate) using a multi-channel pipette. Quadruplicate wells were used for each dilution of an antibiotic under each treatment condition (plus and minus inducer). Each assay plate contained twenty wells for cell growth controls (growth media replacing antibiotic), ten wells for each treatment (plus and minus inducer, in this example IPTG).

Klebsiella pneumoniae = test: Growth inhibition by induced E. coli antisense RNA in Klebsiella pneumoniae; format: cell-based; parameters: key: +: a positive in Table V below means that at least 10 fold more cells were required to observe a colony on the induced plate than on the non-induced plate; −: If there was no effect of antisense RNA expression in a microorganism, the clone is minus in Table V below; conditions: antisense RNA expression induced with IPTG, serial dilution plating
Method: To study the effects of transcriptional induction in liquid medium, growth curves were carried out by back diluting cultures 1:200 into fresh media with or without 1 mM IPTG and measuring the OD450 every 30 minutes (min). To study the effects of transcriptional induction on solid medium, 10^2, 10^3, 10^4, 10^5, 10^6, 10^7 and 10^8 fold dilutions of overnight cultures were prepared. Aliquots of from 0.5 to 3 μl of these dilutions were spotted on selective agar plates with or without 1 mM IPTG. After overnight incubation, the plates were compared to assess the sensitivity of the clones to IPTG.
Molecule No. EcXA190, encoding a portion of the b3052 gene of Escherichia coli, was either transformed directly into Enterobacter cloacae, Salmonella typhimurium and/or Klebsiella pneumoniae or subcloned into an expression vector functional in these species and the subclones transformed into these organisms. Suitable expression vectors are well known in the art. These expression vectors were introduced into Enterobacter cloacae, Salmonella typhimurium and/or Klebsiella pneumoniae cells that were then assayed for growth inhibition according to the method of Example 1. After growth in liquid culture, cells were plated at various serial dilutions and a score determined by calculating the log difference in growth for INDUCED vs. UNINDUCED antisense RNA expression as determined by the maximum 10 fold dilution at which a colony was observed. If there was no effect of antisense RNA expression in one organism, the clone is given a score of zero “0” in that organism. In contrast, a score of “8” means that 10^8 times more cells were required to observe a colony formed on the induced state than in the non-induced state under the conditions used and in that organism.
In addition, the above methods were validated using other antisense nucleic acids which inhibit the growth of E. coli which were identified using methods similar to those described above. Expression vectors which inhibited growth of E. coli upon induction of antisense RNA expression with IPTG were transformed directly into Enterobacter cloacae, Klebsiella pneumonia or Salmonella typhimurium. The transformed cells were then assayed for growth inhibition according to the method of Example 1. After growth in liquid culture, cells were plated at various serial dilutions and a score determined by calculating the log difference in growth for INDUCED vs. UNINDUCED antisense RNA expression as determined by the maximum 10 fold dilution at which a colony was observed. If there was no effect of antisense RNA expression in a microorganism, the clone is minus in Table V below. In contrast, a positive in Table V below means that at least 10 fold more cells were required to observe a colony on the induced plate than on the non-induced plate under the conditions used and in that microorganism.

Row | Molecule | IC50 ([1]; read-out: IC50 (+IPTG)) [µg/mL] | IC50 ([1]; read-out: IC50 (−IPTG)) [µg/mL] | Fold Increase in Sensitivity [1] | Sensitivity Increased? [1] | IC50 (+IPTG) ([1]; antisense to rplL and rplJ induced, 400 μM IPTG) [µg/mL] | IC50 (−IPTG) ([1]; non-induced cells, 0 μM IPTG) [µg/mL] | Sensitivity of K. pneumoniae to antisense nucleic acid (growth inhibition, induced vs. uninduced) (Klebsiella pneumoniae)
1 | CC[C@H](C)[C@H](N)C1=N[C@H](C(=O)N[C@@H](CC(C)C)C(=O)N[C@H](CCC(=O)O)C(=O)N[C@H](C(=O)N[C@H]2CCCCNC(=O)[C@H](CC(N)=O)NC(=O)[C@@H](CC(=O)O)NC(=O)[C@H](Cc3cnc[nH]3)NC(=O)[C@@H](Cc3ccccc3)NC(=O)[C@H]([C@@H](C)CC)NC(=O)[C@@H](CCCN)NC2=O)[C@@H](C)CC)CS1 [Bacitracin] ({Ileψ(thiazoline)Cys}-L[dE]IK[dOrn]I[dF]H[dD]N; lactam 4-C) | 4.68 (≈ 3.29 µM) | 4.08 (≈ 2.87 µM) | 1 | No |  |  | 
2 | CO/N=C(\C(=O)N[C@@H]1C(=O)N2C(C(=O)O)=C(COC(C)=O)CS[C@H]12)c1csc(N)n1 [Cefotaxime] | 0.0242 (≈ 0.053 µM) | 0.0243 (≈ 0.0534 µM) | 1 | No |  |  | 
3 | CO[C@@]1(NC(=O)Cc2cccs2)C(=O)N2C(C(=O)O)=C(COC(N)=O)CS[C@@H]21 [Cefoxitin] | 2.48 (≈ 5.81 µM) | 2.78 (≈ 6.51 µM) | 1 | No |  |  | 
4 | O=C(N[C@H](CO)[C@H](O)c1ccc([N+](=O)[O-])cc1)C(Cl)Cl [Chloramphenicol] | 0.00152 (≈ 0.00469 µM) | 0.465 (≈ 1.44 µM) | 307 | Yes |  |  | 
5 | C[C@H]1c2cccc(O)c2C(=O)C2=C(O)[C@]3(O)C(=O)C(C(N)=O)=C(O)[C@@H](N(C)C)[C@@H]3[C@@H](O)[C@@H]21 [Doxycycline] | 0.0278 (≈ 0.0626 µM) | 0.413 (≈ 0.929 µM) | 15 |  |  |  | 
6 | CC(=O)O[C@H]1C[C@@]2(C)[C@@H](C[C@@H](O)[C@H]3[C@@]4(C)CC[C@@H](O)[C@@H](C)[C@@H]4CC[C@@]32C)/C1=C(\CCC=C(C)C)C(=O)O [Fusidic acid] | 0.641 (≈ 1.24 µM) | 60 (≈ 116 µM) | 94 | Yes |  |  | 
7 | CCC[C@@H]1C[C@@H](C(=O)N[C@@H]([C@H]2O[C@H](SC)[C@H](O)[C@@H](O)[C@H]2O)[C@@H](C)O)N(C)C1 [Lincomycin] | 0.324 (≈ 0.797 µM) | 47.1 (≈ 116 µM) | 145 | Yes |  |  | 
8 | CN(C)c1ccc(O)c2c1C[C@H]1C[C@H]3[C@H](N(C)C)C(O)=C(C(N)=O)C(=O)[C@@]3(O)C(O)=C1C2=O [Minocycline] | 0.0039 (≈ 0.00852 µM) | 0.668 (≈ 1.46 µM) | 172 |  |  |  | 
9 | CC1COc2c(N3CCN(C)CC3)c(F)cc3c(=O)c(C(=O)O)cn1c23 (centres unmarked) [Ofloxacin] | 0.0459 (≈ 0.127 µM) | 0.0496 (≈ 0.137 µM) | 1 |  |  |  | 
10 | CN[C@@H]1[C@H](O)[C@H](NC)[C@H]2O[C@@]3(O)C(=O)C[C@@H](C)O[C@H]3O[C@@H]2[C@H]1O [Spectinomycin] | < 0.156 | 18.1 (≈ 54.3 µM) |  | Yes |  |  | 
11 | [H]/N=C(/N)N[C@H]1[C@H](O)[C@@H](O)[C@H](O[C@@H]2O[C@@H](C)[C@](O)(C=O)[C@H]2O[C@@H]2O[C@@H](CO)[C@H](O)[C@@H](O)[C@@H]2NC)[C@@H](N/C(N)=N\[H])[C@@H]1O [Streptomycin] | 0.161 (≈ 0.277 µM) | 11.3 (≈ 19.4 µM) | 70 | Yes |  |  | 
12 | CN(C)[C@@H]1C(O)=C(C(N)=O)C(=O)[C@@]2(O)C(O)=C3C(=O)c4c(O)cccc4[C@@](C)(O)[C@H]3C[C@@H]12 [Tetracycline] | 0.00183 (≈ 0.00412 µM) | 0.2 (≈ 0.449 µM) | 109 |  |  |  | 
13 | NC[C@H]1O[C@H](O[C@H]2[C@H](O)[C@@H](O[C@H]3O[C@H](CO)[C@@H](O)[C@H](N)[C@H]3O)[C@H](N)C[C@@H]2N)[C@H](N)C[C@@H]1O [Tobramycin] | 0.0706 (≈ 0.151 µM) | 3.59 (≈ 7.69 µM) | 51 | Yes |  |  | 
14 | CN[C@H](CC(C)C)C(=O)N[C@H]1C(=O)N[C@@H](CC(N)=O)C(=O)N[C@H]2C(=O)N[C@H]3C(=O)N[C@H](C(=O)N[C@H](C(=O)O)c4cc(O)cc(O)c4-c4cc3ccc4O)[C@H](O)c3ccc(c(Cl)c3)Oc3cc2cc(c3O[C@@H]2O[C@H](CO)[C@@H](O)[C@H](O)[C@H]2O[C@H]2C[C@](C)(N)[C@H](O)[C@H](C)O2)Oc2ccc(cc2Cl)[C@H]1O [Vancomycin] | 72.5 (≈ 50.1 µM) | 145 (≈ 100 µM) | 2 | No |  |  | 
15 | Gentamicin |  |  | 141 | Yes | 0.01919 | 2.715 | 
16 | EcXA119: antisense clone insert to E. coli b2883 (nucleic acid, listed as Escherichia coli) antisense: CTCTTTTTCTTCGAGATGGACGCAGTGAGCAAAGACACAGTTTTTACCGGTCAGGCCGTACTGATGGTAAACATCCAGATAACCATCATGGTCAGGATAAAGCGATTTCACCCAGGCAATTTCATCTTTGTTTTCACAGAGATGGGTATGTACCCACGTATCCGGATATTCTTCTTTCAGGCGTTGCGCCATCGCCATCTGTTCAGGAGATGAGGTCGGGGCGAAGCGTGGCGTAATCGCATATAGCAGACGACC |  |  |  |  |  |  | −
